Columns and labels:
Solubility = settings: in usual alcohols and in water; hydrochloride
[1] = Toxicity, single oral application in mouse (LD 50); settings: in vivo, dissolved in equivalent quantities of HCl
Source text: (§1) The first column gives the respective two alkyl groups which are fixed in the α-position to the otherwise unsubstituted tryptamines.

Mouse / Rat = assay: Therapeutic index (LD 50 mouse, oral / ED 50 rat, oral); format: in vivo
Source text: as §1

Rat = assay: Anorexia, single oral application in rat (ED 50); format: in vivo; settings: dissolved in equivalent quantities of HCl
Source text: as §1

SMILES | solubility (Solubility) | LD50 [1] [mg/kg] | Therapeutic Index (LD 50 / ED 50) (Mouse / Rat) | ED50 (Rat) [mg/kg]
CCC(C)(N)Cc1c[nH]c2ccccc12 (stereo not shown) [Example 3, 3-(2'-amino-2'-methylbutyl)-indole] | soluble very satisfactorily in usual alcohols and in water | – | – | –
CCC(N)(CC)Cc1c[nH]c2ccccc12 [Ethyl, ethyl, 3-(2'-ethyl-2'-aminobutyl)-indole] | – | 620 | < 12 | > 50
CCC(C)(N)Cc1c[nH]c2ccccc12 (stereo not shown) [Methyl, ethyl, 3-(2'-amino-2'-methylbutyl)-indole] | – | 700 | 47 | 15
CC(C)(N)Cc1c[nH]c2ccccc12 [Methyl, methyl, α,α-dimethyl tryptamine, reference compound] | – | 320 | 9 | 36
CCCC(C)(N)Cc1c[nH]c2ccccc12 (stereo not shown) [Methyl, propyl, 3-(2'-methyl-2'-aminopentyl)-indole] | – | 530 | approx. 11 | ~50
CCCC(N)(CCC)Cc1c[nH]c2ccccc12 [Propyl, propyl, 3-(2'-propyl-2'-aminopentyl)-indole] | – | 900 | < 18 | > 50

Source: patent US3947584A, “Novel indolyl alkyl amines, method of producing same, and their use as anorectic agents” (Siegfried Aktiengesellschaft, priority 1972, dated 1976)
